In patent US12593845B2 (priority 2019, dated 2026):

Columns and labels:
[1] = system: apple scab pathogen (Venturia inaequalis); assay: Apple scab control test; type: in vivo; details: 336 h, 125 ppm drug solution sprayed onto apple seedlings (Orin), lesion area ratio 2 weeks after inoculation
Method: (§1) 5 parts by weight of the dihydropyrimidine compound of the present invention, 93.5 parts by weight of N,N-dimethylformamide, and 1.5 parts by weight of polyoxyethylene sorbitan monolaurate (TWEEN® 20) were mixed and dissolved to obtain an emulsion (I) including 5% of an active ingredient.
(§2) The control value was calculated by the following expression. Control value (%)=100−{lesion area ratio in treated group/lesion area ratio in untreated group}×100 [Expression 1]
Water was added to the emulsion (I) such that the concentration of the dihydropyrimidine compound reached 125 ppm to dissolve the emulsion, and a drug solution was obtained. Subsequently, the drug solution was sprayed onto apple seedlings (variety: “Orin”, leaf stage: 3 to 4) cultivated in seedling pots. After air drying, the seedlings were inoculated with conidiospores of an apple scab pathogen (Venturia inaequalis) (treated group). As a control, apple seedlings that were not sprayed with the drug solution were inoculated in the same manner (untreated group). The seedlings were left to stand in a humidified room at 20° C. using a 12 hour light/dark cycle.
On the day 2 weeks after the inoculation, the leaves of the apple seedlings were visually observed to determine the lesion area ratio, and the control value was calculated.

[2] = system: wheat powdery mildew pathogen (Erysiphe graminis f. sp. tritici); assay: Wheat powdery mildew control test; type: in vivo; details: Blumeria graminis, 144 h; 125 ppm drug solution sprayed onto wheat seedlings (Chihoku); lesion area ratio 6 days after inoculation
Method: as §1, §2
Water was added to the emulsion (I) such that the concentration of the dihydropyrimidine compound reached 125 ppm to dissolve the emulsion, and a drug solution was obtained. Subsequently, the drug solution was sprayed onto wheat seedlings (variety: “Chihoku”, leaf stage: 1 to 2) cultivated in seedling pots. After air drying, conidiospores of a wheat powdery mildew pathogen (Erysiphe graminis f. sp. tritici) were sprinkled thereon for inoculation (treated group). As a control, wheat seedlings that were not sprayed with the drug solution were inoculated in the same manner as described above (untreated group). The seedlings were left to stand in a greenhouse at 20° C.
On the 6 days after the inoculation, the leaves of the wheat seedlings were visually observed to determine the lesion area ratio, and the control value was calculated.

[3] = system: wheat brown rust pathogen (Puccinia recondita); assay: Wheat brown rust control test; type: in vivo; details: 288 h, 125 ppm drug solution sprayed onto wheat seedlings (Norin 61), lesion area ratio 12 days after inoculation
Method: as §1, §2
Water was added to the emulsion (I) such that the concentration of the dihydropyrimidine compound reached 125 ppm to dissolve the emulsion, and a drug solution was obtained. Subsequently, the drug solution was sprayed onto wheat seedlings (variety: “Norin 61”, leaf stage: 1 to 2) cultivated in seedling pots. After air drying, uredospores of a wheat brown rust pathogen (Puccinia recondita) were sprinkled on wheat seedlings sprayed with the drug solution for inoculation (treated group). As a control, wheat seedlings that were not sprayed with the drug solution were inoculated in the same manner as described above (untreated group). The seedlings were left to stand in a greenhouse at 20° C.
On the 12 days after the inoculation, the leaves of the wheat seedlings were visually observed to determine the lesion area ratio, and the control value was calculated.

[4] = system: Aspergillus niger; assay: Antimicrobial test against Aspergillus niger; type: cell-based; details: 96 h, Vogel medium, 25° C., 4 days in the dark, turbidity at 405 nm, read-out: growth inhibition rate
Summary of the method: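 A. niger spores dispersed in Vogel medium with compound (DMSO solution) at 25 ppm, cultured in the dark at 25° C. for 4 days. Turbidity at 405 nm compared with untreated culture to give growth inhibition (%).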

[5] = system: Meloidogyne incognita; assay: Efficacy against Meloidogyne incognita; type: in vivo; details: 96 h, second-instar larvae (L2), 40 μL of 125 ppm drug solution added to 160 μL suspension per well, 20° C., 4 days, read-out: nematode mortality rate
Method: as §1
A suspension containing about 50/0.16 mL second-instar larvae (L2) of Meloidogyne incognita was poured into a 96-well microplate at 160 μL per well. Then, a drug solution prepared by adding water to the emulsion (I) so as to have a concentration of the dihydropyrimidine compound of 125 ppm was poured at 40 μL per well. The plate was left to stand under a 20° C. condition for 4 days.
Mortality was determined, and the nematode mortality rate was calculated. […] The test repeated twice.

[6] = system: wheat powdery mildew pathogen (Erysiphe graminis f. sp. tritici); assay: Wheat powdery mildew seed treatment test; type: in vivo; details: Blumeria graminis, 168 h; seed treatment 100 g/100 kg wheat seeds (Chihoku); inoculation after 8 to 10 days; lesion area ratio 7 days after inoculation
Method: as §1, §2
The emulsion (I) was used to treat seeds such that (weight of dihydropyrimidine compound)/(weight of seeds) reached 100 g/100 kg based on the wheat seeds (variety: “Chihoku”). These seeds were disseminated in pots, and after 8 to 10 days, conidiospores of a wheat powdery mildew pathogen (Erysiphe graminis f. sp. tritici) were sprinkled thereon for inoculation (treated group). As a control, wheat seedlings that were not treated with the drug were inoculated in the same manner as described above (untreated group). The seedlings were left to stand in a greenhouse at 20° C.
(§3) On the 7 days after the inoculation, the leaves of the wheat seedlings were visually observed to determine the lesion area ratio, and the control value was calculated.

[7] = system: wheat powdery mildew pathogen (Erysiphe graminis f. sp. tritici); assay: Wheat powdery mildew soil irrigation treatment test; type: in vivo; details: Blumeria graminis, 168 h; soil irrigation with 10 ml of 100 ppm drug solution per pot, wheat (Chihoku); inoculation after 8 to 10 days; lesion area ratio 7 days after inoculation
Method: as §1, §2
Pots (5.5 cm×5.5 cm) in which wheat seeds (variety: “Chihoku”) were disseminated were irrigated with 10 ml of a drug solution prepared by adding water to the emulsion (I) so as to have a concentration of the dihydropyrimidine compound of 100 ppm. After 8 to 10 days, conidiospores of a wheat powdery mildew pathogen (Erysiphe graminis f. sp. tritici) were sprinkled thereon for inoculation (treated group). As a control, wheat seedlings that were not treated with the drug were inoculated in the same manner as described above (untreated group). The seedlings were left to stand in a greenhouse at 20° C.
as §3

SMILES	pest or weed control at 125 ppm [1] [%]	pest or weed control at 125 ppm [2] [%]	pest or weed control at 125 ppm [3] [%]	inhibition at 25 ppm [4] [%]	mortality at 125 ppm [5] [%]	pest or weed control at 100 g/100 kg seed [6] [%]	pest or weed control at 100 ppm [7] [%]
COc1ccc(F)cc1C(Cn1cc(/C(C)=N/OC(C)C)c(=O)n(CC(C)(C)C(=O)NC(C)C)c1=O)OCCC#N (centres unmarked) [A-1]	≥ 75	≥ 75	≥ 75	≥ 50			
COc1ccc(F)cc1C(O)Cn1cc(/C(C)=N/OC(C)C)c(=O)n(CC(C)(C)C(=O)NC(C)C)c1=O (centres unmarked) [A-2]	≥ 75	≥ 75	≥ 75				
COc1ccc(F)cc1C(Cn1cc(C=NOCC(F)F)c(=O)n(C(C)C(=O)NC(C)C)c1=O)OCCC#N (centres unmarked) [A-10]	≥ 75	≥ 75	≥ 75				
CCCON=Cc1cn(CC(OCCC#N)c2cc(F)ccc2OC)c(=O)n(C(C)C(=O)NC(C)C)c1=O (centres unmarked) [A-11]	≥ 75	≥ 75	≥ 75				
COc1ccc(F)cc1C(Cn1cc(C=NOC(C)C)c(=O)n(C(C)C(=O)NC(C)C)c1=O)OCCC#N (centres unmarked) [A-14, 2-(3-(2-(2-cyanoethoxy)-2-(5-fluoro-2-methoxyphenyl)ethyl)-5-((isopropoxyimino)methyl)-2,6-dioxo-3,6-dihydropyrimidin-1(2H)-yl)-N-isopropylpropanamide]	≥ 75	≥ 75	≥ 75	≥ 50			
CCON=Cc1cn(CC(OCCC#N)c2cc(F)ccc2OC)c(=O)n(CCNC(=O)C(C)C)c1=O (centres unmarked) [A-17]	≥ 75	≥ 75	≥ 75				
CCON=Cc1cn(CC(OCCC#N)c2cc(F)ccc2OC)c(=O)n(C(C)C(=O)NC(C)C)c1=O (centres unmarked) [A-23]	≥ 75	≥ 75	≥ 75	≥ 50			
CCO/N=C(\C)c1cn(CC(OCCC#N)c2cc(F)ccc2OC)c(=O)n(CC(C)(C)C(=O)NC(C)C)c1=O (centres unmarked) [A-24]	≥ 75	≥ 75	≥ 75	≥ 50			
CCO/N=C(\C)c1cn(CC(O)c2cc(F)ccc2OC)c(=O)n(CC(C)(C)C(=O)NC(C)C)c1=O (centres unmarked) [A-25]	≥ 75		≥ 75				
CON=C(C)c1cn(CC(O)c2cc(F)ccc2OC)c(=O)n(C(C)C(=O)NC(C)C)c1=O (centres unmarked) [A-28]					≥ 60		
CCO/N=C(\C)c1cn(CC(O)c2cc(F)ccc2OC)c(=O)n(C2CCCC2NC(=O)C(C)C)c1=O (centres unmarked) [A-48]	≥ 75	≥ 75	≥ 75				
COc1ccccc1C(O)Cn1cc(/C(C)=N/OC(C)C)c(=O)n(C[C@H](C)NC(=O)C(C)C)c1=O (some centres unmarked) [A-58]	≥ 75	≥ 75		≥ 50		≥ 75	≥ 75
COc1ccc(F)cc1C(Cn1cc(C=NOC(C)C)c(=O)n(C[C@H](C)NC(=O)C(C)C)c1=O)OCCC#N (some centres unmarked) [A-60]	≥ 75	≥ 75	≥ 75	≥ 50		≥ 75	≥ 75
COc1ccc(F)cc1C(Cn1cc(/C(C)=N/OC(C)C)c(=O)n(C[C@H](C)NC(=O)C(C)C)c1=O)OC (some centres unmarked) [A-61]	≥ 75	≥ 75	≥ 75	≥ 50		≥ 75	
COc1ccc(F)cc1C(Cn1cc(/C(C)=N/OC(C)C)c(=O)n(C[C@H](C)NC(=O)C(C)C)c1=O)OCCC#N (some centres unmarked) [A-63]	≥ 75	≥ 75	≥ 75	≥ 50			
COc1ccc(F)cc1C(Cn1cc(C=NOC(C)C)c(=O)n(C(C)C(=O)N2CCCCC2)c1=O)OCCC#N (centres unmarked) [A-69]		≥ 75	≥ 75				
C=C1CCN(C(=O)C(C)n2c(=O)c(C=NOC(C)C)cn(CC(O)c3cc(F)ccc3OC)c2=O)CC1 (centres unmarked) [A-70]	≥ 75	≥ 75	≥ 75				
COc1ccc(F)cc1C(O)Cn1cc(C=NOC(C)C)c(=O)n(C[C@H](C)NC(=O)C(C)C)c1=O (some centres unmarked) [A-76]	≥ 75	≥ 75	≥ 75	≥ 50		≥ 75	≥ 75
COc1ccc(F)cc1C(Cn1cc(C=NOC(C)C)c(=O)n(C(C)C(=O)NC2CC2)c1=O)OCCC#N (centres unmarked) [A-80]	≥ 75	≥ 75	≥ 75	≥ 50			
CCON=Cc1cn(CC(OC)c2cc(F)ccc2OC)c(=O)n(C(C)C(=O)NC(C)C)c1=O (centres unmarked) [A-91]	≥ 75	≥ 75	≥ 75				
COc1ccc(F)cc1C(O)Cn1cc(C=NOC(C)C)c(=O)n(C(C)C(=O)NC(C)C)c1=O (centres unmarked) [A-93]	≥ 75	≥ 75	≥ 75	≥ 50			
C=CCOC(Cn1cc(/C(C)=N/OCC)c(=O)n(CCNC(=O)C(C)C)c1=O)c1cc(F)ccc1OC (centres unmarked) [A-95]	≥ 75	≥ 75	≥ 75	≥ 50			
COc1ccc(F)cc1C(Cn1cc(/C(C)=N/OC(C)C)c(=O)n(CCN(C)C(=O)C(C)C)c1=O)OC (centres unmarked) [A-99]	≥ 75	≥ 75	≥ 75				
COc1ccc(F)cc1C(Cn1cc(/C(C)=N/OC(C)C)c(=O)n(CCNC(=O)C(C)C)c1=O)OC (centres unmarked) [A-100]	≥ 75	≥ 75	≥ 75	≥ 50			
CC[C@@H](Cn1c(=O)c(/C(C)=N/OC(C)C)cn(CC(O)c2ccccc2OC)c1=O)NC(=O)C(C)C (some centres unmarked) [C-92]					≥ 60		
COc1ccc(Br)cc1C(O)Cn1cc(/C(C)=N/OC(C)C)c(=O)n(C[C@H](C)NC(=O)C(C)C)c1=O (some centres unmarked) [C-145]					≥ 60		
